Target: T1, ΔF508-CFTR (Homo sapiens, UniProt P13569, DEL508-508)
T1 construct: expressed in transfected cells
Test: Membrane potential optical assay (FRET/VIPR), identification of correction compounds
Type: cell-based
Details: for Emax: relative efficacy
Excerpt: I) Membrane Potential Optical Methods for Assaying ΔF508-CFTR Modulation Properties of Compounds
The optical membrane potential assay utilized voltage-sensitive FRET sensors described by Gonzalez and Tsien (See, Gonzalez, J. E. and R. Y. Tsien (1995) “Voltage sensing by fluorescence resonance energy transfer in single cells” Biophys J 69(4): 1272-80, and Gonzalez, J. E. and R. Y. Tsien (1997) “Improved indicators of cell membrane potential that use fluorescence resonance energy transfer” Chem Biol 4(4): 269-77) in combination with instrumentation for measuring fluorescence changes such as the Voltage/Ion Probe Reader (VIPR) (See, Gonzalez, J. E., K. Oades, et al. (1999) “Cell-based assays and instrumentation for screening ion-channel targets” Drug Discov Today 4(9): 431-439).
These voltage sensitive assays are based on the change in fluorescence resonant energy transfer (FRET) between the membrane-soluble, voltage-sensitive dye, DiSBAC2(3), and a fluorescent phospholipid, CC2-DMPE, which is attached to the outer leaflet of the plasma membrane and acts as a FRET donor. Changes in membrane potential (Vm) cause the negatively charged DiSBAC2(3) to redistribute across the plasma membrane and the amount of energy transfer from CC2-DMPE changes accordingly. The changes in fluorescence emission were monitored using VIPR™ II, which is an integrated liquid handler and fluorescent detector designed to conduct cell-based screens in 96- or 384-well microtiter plates.
Identification of Correction Compounds
To identify small molecules that correct the trafficking defect associated with ΔF508-CFTR; a single-addition HTS assay format was developed. The cells were incubated in serum-free medium for 16 hrs at 37° C. in the presence or absence (negative control) of test compound. As a positive control, cells plated in 384-well plates were incubated for 16 hrs at 27° C. to “temperature-correct” ΔF508-CFTR. The cells were subsequently rinsed 3× with Krebs Ringers solution and loaded with the voltage-sensitive dyes. To activate ΔF508-CFTR, 10 μM forskolin and the CFTR potentiator, genistein (20 μM), were added along with Cl^−-free medium to each well. The addition of Cl^−-free medium promoted Cl^− efflux in response to ΔF508-CFTR activation and the resulting membrane depolarization was optically monitored using the FRET-based voltage-sensor dyes.
NIH3T3 mouse fibroblasts stably expressing ΔF508-CFTR are used for optical measurements of membrane potential. The cells are maintained at 37° C. in 5% CO2 and 90% humidity in Dulbecco's modified Eagle's medium supplemented with 2 mM glutamine, 10% fetal bovine serum, 1×NEAA, β-ME, 1× pen/strep, and 25 mM HEPES in 175 cm^2 culture flasks. For all optical assays, the cells were seeded at 30,000/well in 384-well matrigel-coated plates and cultured for 2 hrs at 37° C. before culturing at 27° C. for 24 hrs. for the potentiator assay. For the correction assays, the cells are cultured at 27° C. or 37° C. with and without compounds for 16-24 hours B) Electrophysiological Assays for assaying ΔF508-CFTR modulation properties of compounds

T1 sequence (P13569 with tags, fused parts or gaps DEL508-508): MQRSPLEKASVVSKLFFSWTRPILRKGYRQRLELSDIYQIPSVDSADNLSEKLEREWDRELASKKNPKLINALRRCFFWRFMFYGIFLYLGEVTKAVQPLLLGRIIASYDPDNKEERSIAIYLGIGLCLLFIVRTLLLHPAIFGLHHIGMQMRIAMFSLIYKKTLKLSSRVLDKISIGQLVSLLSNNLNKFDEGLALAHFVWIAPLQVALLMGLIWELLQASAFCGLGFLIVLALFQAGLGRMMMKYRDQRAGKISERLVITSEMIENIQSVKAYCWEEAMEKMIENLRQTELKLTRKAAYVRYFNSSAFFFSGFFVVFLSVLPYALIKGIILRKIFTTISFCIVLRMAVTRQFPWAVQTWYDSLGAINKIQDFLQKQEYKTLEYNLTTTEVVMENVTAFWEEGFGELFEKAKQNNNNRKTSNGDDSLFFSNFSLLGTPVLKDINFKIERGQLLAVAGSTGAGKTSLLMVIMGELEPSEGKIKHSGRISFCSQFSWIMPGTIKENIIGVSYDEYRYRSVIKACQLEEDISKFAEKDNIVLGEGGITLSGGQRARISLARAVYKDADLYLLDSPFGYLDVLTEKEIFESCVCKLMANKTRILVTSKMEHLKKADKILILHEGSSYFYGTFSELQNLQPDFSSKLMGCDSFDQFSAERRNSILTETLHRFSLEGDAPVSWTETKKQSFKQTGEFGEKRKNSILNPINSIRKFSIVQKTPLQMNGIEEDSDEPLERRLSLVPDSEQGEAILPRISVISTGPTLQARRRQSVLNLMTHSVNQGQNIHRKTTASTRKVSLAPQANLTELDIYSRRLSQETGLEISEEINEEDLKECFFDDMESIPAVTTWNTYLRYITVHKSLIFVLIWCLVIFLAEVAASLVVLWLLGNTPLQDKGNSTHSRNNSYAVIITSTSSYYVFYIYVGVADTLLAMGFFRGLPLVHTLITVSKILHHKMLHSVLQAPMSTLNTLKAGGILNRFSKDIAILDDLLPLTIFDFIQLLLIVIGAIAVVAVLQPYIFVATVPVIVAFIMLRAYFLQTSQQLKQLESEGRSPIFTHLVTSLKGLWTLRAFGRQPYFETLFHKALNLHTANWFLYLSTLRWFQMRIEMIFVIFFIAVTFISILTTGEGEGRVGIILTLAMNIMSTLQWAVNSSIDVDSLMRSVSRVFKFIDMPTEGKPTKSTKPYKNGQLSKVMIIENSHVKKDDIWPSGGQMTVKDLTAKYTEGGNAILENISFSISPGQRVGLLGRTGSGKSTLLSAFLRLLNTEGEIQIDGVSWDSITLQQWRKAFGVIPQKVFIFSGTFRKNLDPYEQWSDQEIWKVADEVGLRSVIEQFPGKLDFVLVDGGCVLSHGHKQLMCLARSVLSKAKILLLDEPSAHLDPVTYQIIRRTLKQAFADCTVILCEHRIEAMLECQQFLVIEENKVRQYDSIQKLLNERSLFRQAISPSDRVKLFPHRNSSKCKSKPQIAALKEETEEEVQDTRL

Row | EC50 [µM] | Emax [%] | SMILES
1 | 10 to 25 | 25 to 100 | COc1ccc(S(=O)(=O)N2CCC(C(C)c3nc4ccccc4c(=O)[nH]3)CC2)cc1 (stereo not shown) [compound 405]
2 | 25 to 60 | 25 to 100 | CC(c1nc2ccccc2c(=O)n1C)N1CCN(S(=O)(=O)c2ccc(CC#N)cc2)CC1 (stereo not shown) [compound 330]
3 | 25 to 60 | < 25 | CC(c1nc2ccccc2c(=O)n1C)N1CCN(S(C)(=O)=O)CC1 (stereo not shown) [compound 79]
4 | 25 to 60 | > 100 | COc1ccc(S(=O)(=O)N2CCN(C(C)c3nc(OC4CCOCC4)c4ccccc4n3)CC2)cc1 (stereo not shown) [compound 300]
5 | 25 to 60 | 25 to 100 | COc1ccc(S(=O)(=O)N2CCCN(C(C)c3nc4ccccc4c(=O)n3C)CC2)cc1 (stereo not shown) [compound 170]
6 | 10 to 25 | < 25 | Cc1ccc(C(=O)N2CCN(C(C)c3nc4cc(Cl)ccc4c(=O)n3C)CC2)cc1 (stereo not shown) [compound 120]
7 | < 10 | > 100 | CC(c1nc(OC2CCCC2)c2ccccc2n1)N1CCN(S(=O)(=O)c2ccc(Cl)cc2)CC1 (stereo not shown) [compound 231]
8 | 25 to 60 | 25 to 100 | CC(c1nc2ccccc2c(=O)n1C)N1CCN(S(=O)(=O)c2ccc3oc(=O)ccc3c2)CC1 (stereo not shown) [compound 252]
9 | < 10 | > 100 | CCCC(c1nc2ccccc2c(=O)n1C)N1CCN(S(=O)(=O)c2ccc(OC)cc2)CC1 (stereo not shown) [compound 340]
10 | 25 to 60 | 25 to 100 | CC(=O)NCCn1c(C(C)N2CCN(S(=O)(=O)c3ccc(Cl)cc3)CC2)nc2ccccc2c1=O (stereo not shown) [compound 289]
11 | < 10 | > 100 | COc1ccc(S(=O)(=O)N2CCN(C(C)c3nc(N4CCC(Cc5ccccc5)CC4)c4ccccc4n3)CC2)cc1 (stereo not shown) [compound 389]
12 | 10 to 25 | 25 to 100 | CC(c1nc2ccccc2c(=O)n1C)N1CCN(S(=O)(=O)c2cccc(C(F)(F)F)c2)CC1 (stereo not shown) [compound 7]
13 | < 10 | > 100 | COc1ccc(S(=O)(=O)N2CCN(C(C)c3nc(N4CCCCC4)c4cc(F)ccc4n3)CC2)cc1 (stereo not shown) [compound 371]
14 | 25 to 60 | < 25 | CC(c1nc2ccccc2c(=O)n1C)N1CCN(S(=O)(=O)c2ccc(C(=O)O)cc2)CC1 (stereo not shown) [compound 240]
15 | < 10 | > 100 | CC(C)Oc1nc(C(C)N2CCN(S(=O)(=O)c3ccc(Br)cc3)CC2)nc2ccccc12 (stereo not shown) [compound 217]
16 | < 10 | > 100 | CCCn1c(CN2CCN(S(=O)(=O)c3ccc(Br)cc3)CC2)nc2ccccc2c1=O [compound 152]
17 | 10 to 25 | 25 to 100 | COc1ccc(S(=O)(=O)N2CCN(Cc3nc4ccc(Cl)cc4c(=O)n3C)CC2)cc1 [compound 137]
18 | < 10 | > 100 | COc1ccc(S(=O)(=O)N2CCC(C(C)c3nc(OC4CCCCC4)c4ccccc4n3)CC2)cc1 (stereo not shown) [compound 404]
19 | 25 to 60 | 25 to 100 | COc1ccc(S(=O)(=O)N2CCC(NC(C)c3nc4ccccc4c(=O)n3C)CC2)cc1 (stereo not shown) [compound 208]
20 | 25 to 60 | 25 to 100 | COc1ccc(S(=O)(=O)N2CCN(C(C)c3nc(N4CCC(CO)CC4)c4ccccc4n3)CC2)cc1 (stereo not shown) [compound 347]
21 | 25 to 60 | < 25 | CC(c1nc2ccccc2c(=O)n1C)N1CCCNCC1 (stereo not shown) [compound 184]
22 | 25 to 60 | < 25 | COc1ccc(S(=O)(=O)N2CC3CC2CN3C(C)c2nc3ccccc3c(=O)n2C)cc1 (stereo not shown) [compound 175]
23 | 25 to 60 | < 25 | CC(NC1CCN(S(=O)(=O)c2ccc(Cl)cc2)C1)c1nc2ccccc2c(=O)n1C (stereo not shown) [compound 225]

Row | EC50 [µM] | Emax [%] | SMILES
24 | < 10 | 25 to 100 | CC(c1nc2ccccc2c(=O)n1C)N1CCN(S(=O)(=O)c2c(Cl)ccc3nonc23)CC1 (stereo not shown) [compound 254]
25 | < 10 | > 100 | COc1ccc(S(=O)(=O)N2CCN(C(C)c3nc(N4CC5CCC4C5)c4ccccc4n3)CC2)cc1 (stereo not shown) [compound 361]
26 | 25 to 60 | < 25 | CC(c1nc2ccccc2c(=O)n1C)N1CCN(S(=O)(=O)Cc2ccccc2)CC1 (stereo not shown) [compound 278]
27 | 10 to 25 | < 25 | CC(c1nc2ccc(S(C)(=O)=O)cc2c(=O)n1C)N1CCN(S(=O)(=O)c2ccccc2)CC1 (stereo not shown) [compound 138]
28 | 25 to 60 | < 25 | CC(c1nc2ccccc2c(=O)n1C)N1CCC(NS(=O)(=O)c2ccc(Br)cc2)C1 (stereo not shown) [compound 163]
29 | < 10 | > 100 | COc1ccc(S(=O)(=O)N2CCN(C(C)c3nc(N4CCCc5ccccc54)c4ccccc4n3)CC2)cc1 (stereo not shown) [compound 388]
30 | 25 to 60 | 25 to 100 | C=Cc1ccc(S(=O)(=O)N2CCN(C(C)c3nc4ccccc4c(=O)n3C)CC2)cc1 (stereo not shown) [compound 244]
31 | < 10 | > 100 | CC(NC1CCN(S(=O)(=O)c2ccc(Br)cc2)CC1)c1nc2ccccc2c(=O)n1C (stereo not shown) [compound 210]
32 | 25 to 60 | < 25 | CC(=O)Nc1ccc(S(=O)(=O)N2CCN(C(C)c3nc4ccccc4c(=O)n3C)CC2)cc1 (stereo not shown) [compound 230]
33 | 25 to 60 | 25 to 100 | COc1nc(C(C)N2CCN(S(=O)(=O)c3ccc(Br)cc3)CC2)nc2ccccc12 (stereo not shown) [compound 227]
34 | 10 to 25 | < 25 | CC(c1nc2ccccc2c(=O)n1C)N1CCN(S(=O)(=O)c2ccc(-c3csnn3)s2)CC1 (stereo not shown) [compound 280]
35 | 25 to 60 | 25 to 100 | COc1ccc(S(=O)(=O)N2CCN(C(C)c3nc(N4CCOCC4)c4ccccc4n3)CC2)cc1 (stereo not shown) [compound 196]
36 | 25 to 60 | 25 to 100 | COc1ccc(S(=O)(=O)N2CCC(N(C)C(C)c3nc4ccccc4c(=O)n3C)CC2)cc1 (stereo not shown) [compound 314]
37 | 25 to 60 | 25 to 100 | COc1ccc(S(=O)(=O)N2CCN(C(C)c3ncc4ccccc4n3)CC2)cc1 (stereo not shown) [compound 312]
38 | < 10 | 25 to 100 | COc1ccc(S(=O)(=O)N2CCN(C(C)c3nc4cc(Cl)ccc4c(=O)n3C)CC2)cc1 (stereo not shown) [compound 93]
39 | < 10 | 25 to 100 | COc1ccc(S(=O)(=O)N2CCN(C(C)c3nc(NCc4ccccc4)c4ccccc4n3)CC2)cc1 (stereo not shown) [compound 367]
40 | 10 to 25 | 25 to 100 | CC(NC1CCN(S(=O)(=O)c2ccc(Cl)cc2)CC1)c1nc2ccccc2c(=O)n1C (stereo not shown) [compound 209]
41 | < 10 | > 100 | COc1ccc(S(=O)(=O)N2CCN(Cc3nc(OC4CCCCC4)c4ccccc4n3)CC2)cc1 [compound 385]
42 | 25 to 60 | 25 to 100 | COCCOc1nc(C(C)N2CCN(S(=O)(=O)c3ccc(OC)cc3)CC2)nc2ccccc12 (stereo not shown) [compound 295]
43 | < 10 | 25 to 100 | COc1ccc(S(=O)(=O)N2CCN(C(C)c3ncc(-c4ccccc4)c(N4CCCCC4)n3)CC2)cc1 (stereo not shown) [compound 376]
44 | 10 to 25 | < 25 | Cc1ccc(C(=O)N2CCN(C(C)c3nc4ccccc4c(=O)n3C)CC2)cc1 (stereo not shown) [compound 74]
45 | < 10 | 25 to 100 | CC(c1nc2ccccc2c(=O)n1C)N1CCC(NS(=O)(=O)c2ccc(Cl)cc2)CC1 (stereo not shown) [compound 165]
46 | 25 to 60 | < 25 | CC(c1nc2ccccc2c(=O)n1C)N1CCN(S(=O)(=O)c2ccc(Cl)c3nonc23)CC1 (stereo not shown) [compound 271]

Row | SMILES | EC50 [µM] | Emax [%]
47 | CC(c1nc2cc(Cl)ccc2c(=O)n1C)N1CCN(C(=O)Cc2ccccc2)CC1 (stereo not shown) [compound 112] | 10 to 25 | < 25

Source: patent publication US8642609B2, “Modulators of ATP-binding cassette transporters” (Vertex Pharmaceuticals Incorporated, priority 2003, dated 2014)
